# System: HCT116 cells
# Assay: In vitro cytotoxicity measured by the cell colony formation assay
# Type: cell-based
# Settings: HCT116 cells, 72 h incubation with drug, colonies counted after 7 days; ID50 = drug concentration producing 50% inhibition of colony formation; read-out: IN VITRO ID 50 (nm) HCT116
# In short: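 Colony-forming survival was scored 7 days after a 72 h, 37 °C compound exposure followed by washout into fresh medium.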
row,SMILES,IC50
1,COC(=O)O[C@H]1C[C@H]2OC[C@@]2(OC(C)=O)C2[C@H](OC(=O)c3ccccc3)[C@]3(O)C[C@H](OC(=O)[C@H](O)[C@@H](NC(=O)c4ccccc4)c4cccs4)C(C)=C([C@@H](O)C(=O)[C@@]21C)C3(C)C (stereo partly shown) [Compound 4411],< 1 nM
2,COC(=O)O[C@H]1C[C@H]2OC[C@@]2(OC(C)=O)C2[C@H](OC(=O)c3ccccc3)[C@]3(O)C[C@H](OC(=O)[C@H](O)[C@@H](NC(=O)c4cccs4)c4cccs4)C(C)=C([C@@H](O)C(=O)[C@@]21C)C3(C)C (stereo partly shown) [Compound 4424],< 1 nM
3,COC(=O)O[C@H]1C[C@H]2OC[C@@]2(OC(C)=O)C2[C@H](OC(=O)c3ccccc3)[C@]3(O)C[C@H](OC(=O)[C@H](O)[C@@H](NC(=O)OC(C)(C)C)c4ccoc4)C(C)=C([C@@H](O)C(=O)[C@@]21C)C3(C)C (stereo partly shown) [Compound 4434],< 1 nM
4,COC(=O)O[C@H]1C[C@H]2OC[C@@]2(OC(C)=O)C2[C@H](OC(=O)c3ccccc3)[C@]3(O)C[C@H](OC(=O)[C@H](O)[C@@H](NC(=O)OC(C)(C)C)c4ccsc4)C(C)=C([C@@H](O)C(=O)[C@@]21C)C3(C)C (stereo partly shown) [Compound 4444],< 1 nM
5,CCOC(=O)O[C@H]1C[C@H]2OC[C@@]2(OC(C)=O)C2[C@H](OC(=O)c3ccccc3)[C@]3(O)C[C@H](OC(=O)[C@H](O)[C@@H](NC(=O)c4cccs4)c4cccs4)C(C)=C([C@@H](O)C(=O)[C@@]21C)C3(C)C (stereo partly shown) [Compound 4455],< 1 nM
6,CCOC(=O)O[C@H]1C[C@H]2OC[C@@]2(OC(C)=O)C2[C@H](OC(=O)c3ccccc3)[C@]3(O)C[C@H](OC(=O)[C@H](O)[C@@H](NC(=O)OC(C)(C)C)c4ccoc4)C(C)=C([C@@H](O)C(=O)[C@@]21C)C3(C)C (stereo partly shown) [Compound 4464],< 1 nM
7,COC(=O)O[C@H]1C[C@H]2OC[C@@]2(OC(C)=O)C2[C@H](OC(=O)c3ccccc3)[C@]3(O)C[C@H](OC(=O)[C@H](O)[C@@H](NC(=O)OC(C)(C)C)c4ccsc4)C(C)=C([C@@H](O)C(=O)[C@@]21C)C3(C)C (stereo partly shown) [Compound 4474],< 1 nM
8,COC(=O)O[C@H]1C[C@H]2OC[C@@]2(OC(C)=O)C2[C@H](OC(=O)c3ccccc3)[C@]3(O)C[C@H](OC(=O)[C@H](O)[C@H](C=C(C)C)NC(=O)OC(C)(C)C)C(C)=C([C@@H](O)C(=O)[C@@]21C)C3(C)C (stereo partly shown) [Compound 4484],< 1 nM
9,CCOC(=O)O[C@H]1C[C@H]2OC[C@@]2(OC(C)=O)C2[C@H](OC(=O)c3ccccc3)[C@]3(O)C[C@H](OC(=O)[C@H](O)[C@@H](NC(=O)OC(C)(C)C)c4ccsc4)C(C)=C([C@@H](O)C(=O)[C@@]21C)C3(C)C (stereo partly shown) [Compound 4500],< 1 nM
10,CC(=O)O[C@H]1C[C@H]2OC[C@@]2(OC(C)=O)C2[C@H](OC(=O)c3ccccc3)[C@]3(O)C[C@H](OC(=O)[C@H](O)[C@@H](NC(=O)OCC(C)C)c4ccsc4)C(C)=C([C@@H](O)C(=O)[C@@]21C)C3(C)C (stereo partly shown) [Compound 4515],< 10 nM
11,CCOC(=O)O[C@H]1C[C@H]2OC[C@@]2(OC(C)=O)C2[C@H](OC(=O)c3ccccc3)[C@]3(O)C[C@H](OC(=O)[C@H](O)[C@H](C=C(C)C)NC(=O)OC(C)(C)C)C(C)=C([C@@H](O)C(=O)[C@@]21C)C3(C)C (stereo partly shown) [Compound 4524],< 1 nM
12,COC(=O)O[C@H]1C[C@H]2OC[C@@]2(OC(C)=O)C2[C@H](OC(=O)c3ccccc3)[C@]3(O)C[C@H](OC(=O)[C@H](O)[C@@H](NC(=O)OC(C)(C)C)c4ccco4)C(C)=C([C@@H](O)C(=O)[C@@]21C)C3(C)C (stereo partly shown) [Compound 4533],< 1 nM
13,CC(=O)O[C@H]1C[C@H]2OC[C@@]2(OC(C)=O)C2[C@H](OC(=O)c3ccccc3)[C@]3(O)C[C@H](OC(=O)[C@H](O)[C@@H](NC(=O)OC(C)(C)C)C4CC4)C(C)=C([C@@H](O)C(=O)[C@@]21C)C3(C)C (stereo partly shown) [Compound 4555],< 1 nM
14,COC(=O)O[C@H]1C[C@H]2OC[C@@]2(OC(C)=O)C2[C@H](OC(=O)c3ccccc3)[C@]3(O)C[C@H](OC(=O)[C@H](O)[C@@H](NC(=O)OC(C)(C)C)C4CC4)C(C)=C([C@@H](O)C(=O)[C@@]21C)C3(C)C (stereo partly shown) [Compound 4566],< 1 nM
15,COC(=O)O[C@H]1C[C@H]2OC[C@@]2(OC(C)=O)C2[C@H](OC(=O)c3ccccc3)[C@]3(O)C[C@H](OC(=O)[C@H](O)[C@@H](NC(=O)OC(C)(C)C)c4ccco4)C(C)=C([C@@H](O)C(=O)[C@@]21C)C3(C)C (stereo partly shown) [Compound 4575],< 1 nM
16,COC(=O)O[C@H]1C[C@H]2OC[C@@]2(OC(C)=O)C2[C@H](OC(=O)c3ccccc3)[C@]3(O)C[C@H](OC(=O)[C@H](O)[C@@H](NC(=O)OCC(C)C)c4ccoc4)C(C)=C([C@@H](O)C(=O)[C@@]21C)C3(C)C (stereo partly shown) [Compound 4584],< 10 nM
17,CCOC(=O)O[C@H]1C[C@H]2OC[C@@]2(OC(C)=O)C2[C@H](OC(=O)c3ccccc3)[C@]3(O)C[C@H](OC(=O)[C@H](O)[C@@H](NC(=O)OCC(C)C)c4ccoc4)C(C)=C([C@@H](O)C(=O)[C@@]21C)C3(C)C (stereo partly shown) [Compound 4624],< 10 nM
18,CCOC(=O)O[C@H]1C(=O)[C@@]2(C)C([C@H](OC(=O)c3ccccc3)[C@]3(O)C[C@H](OC(=O)[C@H](O)[C@@H](NC(=O)OCC(C)C)c4ccoc4)C(C)=C1C3(C)C)[C@]1(OC(C)=O)CO[C@@H]1C[C@@H]2O (stereo partly shown) [Compound 4636],< 10 nM
19,COC(=O)O[C@H]1C[C@H]2OC[C@@]2(OC(C)=O)C2[C@H](OC(=O)c3ccccc3)[C@]3(O)C[C@H](OC(=O)[C@H](O)[C@H](C=C(C)C)NC(=O)OCC(C)C)C(C)=C([C@@H](O)C(=O)[C@@]21C)C3(C)C (stereo partly shown) [Compound 4644],< 10 nM
20,COC(=O)O[C@H]1C[C@H]2OC[C@@]2(OC(C)=O)C2[C@H](OC(=O)c3ccccc3)[C@]3(O)C[C@H](OC(=O)[C@H](O)[C@@H](NC(=O)OCC(C)C)c4ccco4)C(C)=C([C@@H](O)C(=O)[C@@]21C)C3(C)C (stereo partly shown) [Compound 4656],< 1 nM
21,COC(=O)O[C@H]1C[C@H]2OC[C@@]2(OC(C)=O)C2[C@H](OC(=O)c3ccccc3)[C@]3(O)C[C@H](OC(=O)[C@H](O)[C@@H](NC(=O)OCC(C)C)c4ccsc4)C(C)=C([C@@H](O)C(=O)[C@@]21C)C3(C)C (stereo partly shown) [Compound 4674],< 1 nM
22,CCOC(=O)O[C@H]1C[C@H]2OC[C@@]2(OC(C)=O)C2[C@H](OC(=O)c3ccccc3)[C@]3(O)C[C@H](OC(=O)[C@H](O)[C@H](C=C(C)C)NC(=O)OCC(C)C)C(C)=C([C@@H](O)C(=O)[C@@]21C)C3(C)C (stereo partly shown) [Compound 4688],< 10 nM
23,CCOC(=O)O[C@H]1C[C@H]2OC[C@@]2(OC(C)=O)C2[C@H](OC(=O)c3ccccc3)[C@]3(O)C[C@H](OC(=O)[C@H](O)[C@@H](NC(=O)OCC(C)C)c4ccco4)C(C)=C([C@@H](O)C(=O)[C@@]21C)C3(C)C (stereo partly shown) [Compound 4696],< 1 nM

# Same assay, conditions: HCT116 colony formation; 72 h drug incubation, colonies counted after 7 days; Example 5, C-7 ester/C-10 hydroxy taxanes; read-out: IN VITRO ID 50 (nm) HCT116
row,SMILES,IC50
1,CCCC(=O)O[C@H]1C[C@H]2OC[C@@]2(OC(C)=O)C2[C@H](OC(=O)c3ccccc3)[C@]3(O)C[C@H](OC(=O)[C@H](O)[C@H](C=C(C)C)NC(=O)OC(C)(C)C)C(C)=C([C@@H](O)C(=O)[C@@]21C)C3(C)C (stereo partly shown) [Compound 4406],< 1 nM
2,CCCC(=O)O[C@H]1C[C@H]2OC[C@@]2(OC(C)=O)C2[C@H](OC(=O)c3ccccc3)[C@]3(O)C[C@H](OC(=O)[C@H](O)[C@@H](NC(=O)c4ccccc4)c4cccs4)C(C)=C([C@@H](O)C(=O)[C@@]21C)C3(C)C (stereo partly shown) [Compound 4414],< 1 nM
3,CCCC(=O)O[C@H]1C[C@H]2OC[C@@]2(OC(C)=O)C2[C@H](OC(=O)c3ccccc3)[C@]3(O)C[C@H](OC(=O)[C@H](O)[C@@H](NC(=O)OC(C)(C)C)c4ccsc4)C(C)=C([C@@H](O)C(=O)[C@@]21C)C3(C)C (stereo partly shown) [Compound 4446],< 1 nM
4,CCCC(=O)O[C@H]1C[C@H]2OC[C@@]2(OC(C)=O)C2[C@H](OC(=O)c3ccccc3)[C@]3(O)C[C@H](OC(=O)[C@H](O)[C@@H](NC(=O)c4cccs4)c4cccs4)C(C)=C([C@@H](O)C(=O)[C@@]21C)C3(C)C (stereo partly shown) [Compound 4454],< 1 nM
5,CCCC(=O)O[C@H]1C[C@H]2OC[C@@]2(OC(C)=O)C2[C@H](OC(=O)c3ccccc3)[C@]3(O)C[C@H](OC(=O)[C@H](O)[C@@H](NC(=O)OC(C)(C)C)c4ccco4)C(C)=C([C@@H](O)C(=O)[C@@]21C)C3(C)C (stereo partly shown) [Compound 4499],< 1 nM
6,CCC(=O)O[C@H]1C[C@H]2OC[C@@]2(OC(C)=O)C2[C@H](OC(=O)c3ccccc3)[C@]3(O)C[C@H](OC(=O)[C@H](O)[C@@H](NC(=O)OCC(C)C)c4ccsc4)C(C)=C([C@@H](O)C(=O)[C@@]21C)C3(C)C (stereo partly shown) [Compound 4544],< 10 nM
7,CCCC(=O)O[C@H]1C[C@H]2OC[C@@]2(OC(C)=O)C2[C@H](OC(=O)c3ccccc3)[C@]3(O)C[C@H](OC(=O)[C@H](O)[C@@H](NC(=O)OCC(C)C)c4ccsc4)C(C)=C([C@@H](O)C(=O)[C@@]21C)C3(C)C (stereo partly shown) [Compound 4600],< 10 nM
8,CCCC(=O)O[C@H]1C[C@H]2OC[C@@]2(OC(C)=O)C2[C@H](OC(=O)c3ccccc3)[C@]3(O)C[C@H](OC(=O)[C@H](O)[C@@H](NC(=O)OCC(C)C)c4ccco4)C(C)=C([C@@H](O)C(=O)[C@@]21C)C3(C)C (stereo partly shown) [Compound 4616],< 1 nM

# Same assay, conditions: HCT116 colony formation; 72 h drug incubation, colonies counted after 7 days; Example 10, C-10 ester/C-7 hydroxy taxanes; read-out: IN VITRO ID 50 (nm) HCT116
row,SMILES,IC50
1,CC(=O)O[C@@]12CO[C@@H]1C[C@H](O)[C@@]1(C)C(=O)[C@H](OC(=O)C3CC3)C3=C(C)[C@@H](OC(=O)[C@H](O)[C@@H](NC(=O)OCC(C)C)c4ccoc4)C[C@@](O)([C@@H](OC(=O)c4ccccc4)C12)C3(C)C (stereo partly shown) [Compound 4665],< 10 nM
2,CCCC(=O)O[C@H]1C(=O)[C@@]2(C)C([C@H](OC(=O)c3ccccc3)[C@]3(O)C[C@H](OC(=O)[C@H](O)[C@@H](NC(=O)OCC(C)C)c4ccoc4)C(C)=C1C3(C)C)[C@]1(OC(C)=O)CO[C@@H]1C[C@@H]2O (stereo partly shown) [Compound 4704],< 10 nM
3,CCC(=O)O[C@H]1C(=O)[C@@]2(C)C([C@H](OC(=O)c3ccccc3)[C@]3(O)C[C@H](OC(=O)[C@H](O)[C@@H](NC(=O)OCC(C)C)c4ccsc4)C(C)=C1C3(C)C)[C@]1(OC(C)=O)CO[C@@H]1C[C@@H]2O (stereo partly shown) [Compound 4711],< 10 nM
